Like-named read-outs stand apart in the source and are kept apart here.

The values below come from article PMC7822819, “Discovery of a new class of integrin antibodies for fibrosis” (Scientific Reports, 2021).

One test has as its target human αvβ8 (Homo sapiens, UniProt P06756+P26012). Description: AlphaLISA integrin-ligand binding assay. The test is classed as biochemical. On the set-up: hαV 1 992; hβ8 1 684; made in house; host or cells: Expi293. The procedure:
In the AlphaLISA integrin assays, we used a HEPES based buffer (25 mM HEPES pH 7.4, 137 mM NaCl, 1 mM MgCl2, 1 mM MnCl2, 2 mM CaCl2, 2.7 mM KCl, and 0.05% Tween-20). Optimal assay conditions were determined with a titration of the reagents for signal noise ratio (S/N), linear range, etc. For the respective integrins, we used the final concentrations described in Supplemental Table S3. Briefly, the testing antibody (8 μL) was added as a 4x (of Final testing concentration) solution in the HEPES buffer described previously into a 384w AlphaPlate (Perkin Elmer #6005350). Then the integrin and ligand were added sequentially as 8x (4 μL each). Plates were sealed and incubated at room temperature for 2 h. Then 4 × acceptor bead solution (8 μL) was added, and the plates were resealed and incubated at RT for 1 h. Finally, 4 × (8 μL) donor beads solution was added in a darkened room and incubated for 45 min at room temperature. Plates were read on the Envision (Perkin Elmer) in AlphaScreen mode within 3 h of donor bead addition.
Supplemental Table S3. integrin AlphaLIS A assay reagents and conditions Human A l phal i sa Inte gri n A ssays: Fi nal Condi ti ons […]
( batch de pe nde nt) anti body A l phaLi sa A cce ptor havb1 1. 4 nM 1. 0 nMα - Fi brone cti n human Fi brone cti n n/a A cce ptor be ads/ Pe rki n 10. 0 ug/ m 10. 0 ug/ m […]
havb3 3. 0 nM 10. […]

For the next test, the target named is T1, CHOK1-mαvβ5 cells (Mus musculus, UniProt O70309+P43406).
T1 construct: expressed in transfected cells
Briefly: Cell adhesion assay (Epic) on vitronectin. The test is classed as cell-based. Conditions: vitronectin matrix; in words. As for the experimental part: (§1) For plate preparation, Epic 384-well assay plates (Corning #5040) were washed with OptiMEM (Gibco #31985-070) and coated with murine fibronectin (Abcam #ab92784) at a concentration of 0.1 μg/well for CHO-a5KO-mαvβ1 cells; murine vitronectin (Abcam #ab92727) at 0.075 μg/well for CHO-mαvβ3 cells; or murine vitronectin at 0.125 μg/well for CHO-mαvβ5 (all at a volume of 25 μl/well in OptiMEM), for 1 h. Coating solution was then removed by flicking and plates were washed with OptiMEM and blocked with 25 μl/well of assay buffer [1% Ovalbumin (Sigma #A5503-10G) in OptiMEM containing 1X Pen-Strep (Gibco #15140-148)]. A 5-min baseline reading was taken on a Corning Epic Plate Reader (Model: Epic BT-157900) before removing the assay buffer and adding cells pre-incubated with inhibitors. The Epic plate reader detects cellular mass redistribution (adhesion) on the plate surface as a picometer wavelength shift over time. […] Cells were incubated with the inhibitors for 1 h at RT with gentle rocking, after which 50 μL per well was transferred to the Epic assay plate, and a time course of cell adhesion was monitored for an additional 3 h.

The target in another test is T2, CHOK1-mαvβ3 cells (Mus musculus, UniProt O54890+P43406).
T2 construct: expressed in transfected cells
Briefly: Cell adhesion assay (Epic) on vitronectin. It counts as cell-based. As to conditions: vitronectin matrix; in words. As for the experimental part:
as §1

Sequence of human αvβ8 (P06756 31-992): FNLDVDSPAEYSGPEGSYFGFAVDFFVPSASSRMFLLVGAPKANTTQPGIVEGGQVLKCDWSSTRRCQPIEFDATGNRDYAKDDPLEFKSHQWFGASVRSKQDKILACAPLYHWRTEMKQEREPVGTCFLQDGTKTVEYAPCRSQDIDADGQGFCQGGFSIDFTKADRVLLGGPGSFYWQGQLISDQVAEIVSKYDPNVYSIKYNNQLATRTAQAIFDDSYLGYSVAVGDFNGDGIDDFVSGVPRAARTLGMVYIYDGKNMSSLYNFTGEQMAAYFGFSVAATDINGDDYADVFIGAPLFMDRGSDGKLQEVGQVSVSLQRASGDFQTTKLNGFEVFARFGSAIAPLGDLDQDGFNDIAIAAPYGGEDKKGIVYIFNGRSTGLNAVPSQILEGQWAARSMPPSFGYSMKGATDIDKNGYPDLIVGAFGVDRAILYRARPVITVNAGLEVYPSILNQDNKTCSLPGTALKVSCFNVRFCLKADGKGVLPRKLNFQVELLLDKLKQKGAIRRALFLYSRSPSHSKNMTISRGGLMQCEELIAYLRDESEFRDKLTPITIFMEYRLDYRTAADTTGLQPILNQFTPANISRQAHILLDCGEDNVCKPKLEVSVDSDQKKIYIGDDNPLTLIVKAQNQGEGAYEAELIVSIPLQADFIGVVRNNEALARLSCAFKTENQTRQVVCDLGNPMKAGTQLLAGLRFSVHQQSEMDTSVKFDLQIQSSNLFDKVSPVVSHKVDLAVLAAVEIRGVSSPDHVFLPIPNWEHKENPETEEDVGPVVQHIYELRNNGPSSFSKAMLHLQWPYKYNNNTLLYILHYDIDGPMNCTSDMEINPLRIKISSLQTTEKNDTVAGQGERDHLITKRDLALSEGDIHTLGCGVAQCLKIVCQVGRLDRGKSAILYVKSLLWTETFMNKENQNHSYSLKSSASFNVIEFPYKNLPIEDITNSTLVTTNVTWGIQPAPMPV
Sequence of human αvβ8 (P26012 43-684): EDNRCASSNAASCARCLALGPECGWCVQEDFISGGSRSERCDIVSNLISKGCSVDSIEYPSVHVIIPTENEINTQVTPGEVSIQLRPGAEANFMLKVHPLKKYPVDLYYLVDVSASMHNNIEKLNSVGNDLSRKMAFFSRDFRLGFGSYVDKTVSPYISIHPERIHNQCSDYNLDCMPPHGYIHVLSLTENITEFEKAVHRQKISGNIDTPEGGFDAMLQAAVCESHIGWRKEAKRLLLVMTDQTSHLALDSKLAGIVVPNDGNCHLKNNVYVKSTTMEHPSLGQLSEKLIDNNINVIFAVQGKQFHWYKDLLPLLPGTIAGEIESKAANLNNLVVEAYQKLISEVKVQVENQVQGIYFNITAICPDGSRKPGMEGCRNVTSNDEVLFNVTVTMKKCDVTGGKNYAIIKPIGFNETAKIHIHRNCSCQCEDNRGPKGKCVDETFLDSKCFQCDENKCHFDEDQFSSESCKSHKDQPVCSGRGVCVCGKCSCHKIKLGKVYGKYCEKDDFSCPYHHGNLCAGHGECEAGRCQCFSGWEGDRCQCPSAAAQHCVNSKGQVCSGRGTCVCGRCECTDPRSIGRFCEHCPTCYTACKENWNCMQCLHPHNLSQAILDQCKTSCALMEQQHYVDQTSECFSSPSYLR
T2 sequence (P43406 31-1044): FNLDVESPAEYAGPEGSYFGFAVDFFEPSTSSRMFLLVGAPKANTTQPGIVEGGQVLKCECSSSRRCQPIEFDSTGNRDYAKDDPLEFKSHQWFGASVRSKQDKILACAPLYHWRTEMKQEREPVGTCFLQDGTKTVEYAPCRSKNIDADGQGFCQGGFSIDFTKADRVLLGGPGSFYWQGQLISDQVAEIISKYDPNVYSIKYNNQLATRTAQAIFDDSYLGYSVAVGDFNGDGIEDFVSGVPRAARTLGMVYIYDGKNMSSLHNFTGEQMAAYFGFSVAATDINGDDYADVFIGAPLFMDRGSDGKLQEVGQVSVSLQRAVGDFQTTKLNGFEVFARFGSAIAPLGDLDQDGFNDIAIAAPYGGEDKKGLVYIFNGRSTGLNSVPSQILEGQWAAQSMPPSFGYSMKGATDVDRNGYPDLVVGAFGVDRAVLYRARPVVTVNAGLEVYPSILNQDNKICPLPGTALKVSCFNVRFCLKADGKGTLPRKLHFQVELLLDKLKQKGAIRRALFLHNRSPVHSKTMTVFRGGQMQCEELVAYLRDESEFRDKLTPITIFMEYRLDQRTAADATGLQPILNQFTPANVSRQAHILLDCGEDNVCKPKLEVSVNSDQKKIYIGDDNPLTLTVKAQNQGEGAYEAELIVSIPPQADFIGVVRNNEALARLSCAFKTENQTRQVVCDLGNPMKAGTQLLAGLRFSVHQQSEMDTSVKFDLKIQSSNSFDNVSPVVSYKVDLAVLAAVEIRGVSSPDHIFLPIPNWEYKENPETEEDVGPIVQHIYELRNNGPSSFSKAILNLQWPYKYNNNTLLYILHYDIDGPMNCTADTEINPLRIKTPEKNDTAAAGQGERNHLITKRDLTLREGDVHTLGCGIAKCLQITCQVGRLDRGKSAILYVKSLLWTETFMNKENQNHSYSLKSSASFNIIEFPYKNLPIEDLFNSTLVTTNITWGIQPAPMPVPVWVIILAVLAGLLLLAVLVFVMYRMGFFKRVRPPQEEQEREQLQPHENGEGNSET
T2 sequence (O54890 26-787): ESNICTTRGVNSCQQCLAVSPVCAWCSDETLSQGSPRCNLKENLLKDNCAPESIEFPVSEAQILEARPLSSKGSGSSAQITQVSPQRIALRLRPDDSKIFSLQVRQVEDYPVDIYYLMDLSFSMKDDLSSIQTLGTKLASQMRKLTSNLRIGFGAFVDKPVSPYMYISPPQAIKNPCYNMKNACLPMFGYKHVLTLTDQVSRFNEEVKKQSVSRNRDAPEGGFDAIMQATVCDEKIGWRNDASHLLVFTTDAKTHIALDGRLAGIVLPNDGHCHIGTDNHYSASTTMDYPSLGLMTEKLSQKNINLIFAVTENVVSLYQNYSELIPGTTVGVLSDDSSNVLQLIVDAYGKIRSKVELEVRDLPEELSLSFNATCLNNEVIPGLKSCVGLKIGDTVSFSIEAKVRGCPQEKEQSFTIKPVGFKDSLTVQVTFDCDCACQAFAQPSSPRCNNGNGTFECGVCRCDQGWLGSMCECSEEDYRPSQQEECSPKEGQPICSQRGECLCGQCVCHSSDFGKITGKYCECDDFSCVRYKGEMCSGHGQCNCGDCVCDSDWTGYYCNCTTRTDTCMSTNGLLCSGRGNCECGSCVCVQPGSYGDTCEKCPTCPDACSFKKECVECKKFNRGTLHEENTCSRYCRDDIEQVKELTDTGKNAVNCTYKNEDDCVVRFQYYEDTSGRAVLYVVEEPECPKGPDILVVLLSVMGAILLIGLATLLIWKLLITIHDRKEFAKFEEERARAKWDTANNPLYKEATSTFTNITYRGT
T1 sequence (P43406 31-1044): as the sequence (P43406 31-1044) above
T1 sequence (O70309 24-798): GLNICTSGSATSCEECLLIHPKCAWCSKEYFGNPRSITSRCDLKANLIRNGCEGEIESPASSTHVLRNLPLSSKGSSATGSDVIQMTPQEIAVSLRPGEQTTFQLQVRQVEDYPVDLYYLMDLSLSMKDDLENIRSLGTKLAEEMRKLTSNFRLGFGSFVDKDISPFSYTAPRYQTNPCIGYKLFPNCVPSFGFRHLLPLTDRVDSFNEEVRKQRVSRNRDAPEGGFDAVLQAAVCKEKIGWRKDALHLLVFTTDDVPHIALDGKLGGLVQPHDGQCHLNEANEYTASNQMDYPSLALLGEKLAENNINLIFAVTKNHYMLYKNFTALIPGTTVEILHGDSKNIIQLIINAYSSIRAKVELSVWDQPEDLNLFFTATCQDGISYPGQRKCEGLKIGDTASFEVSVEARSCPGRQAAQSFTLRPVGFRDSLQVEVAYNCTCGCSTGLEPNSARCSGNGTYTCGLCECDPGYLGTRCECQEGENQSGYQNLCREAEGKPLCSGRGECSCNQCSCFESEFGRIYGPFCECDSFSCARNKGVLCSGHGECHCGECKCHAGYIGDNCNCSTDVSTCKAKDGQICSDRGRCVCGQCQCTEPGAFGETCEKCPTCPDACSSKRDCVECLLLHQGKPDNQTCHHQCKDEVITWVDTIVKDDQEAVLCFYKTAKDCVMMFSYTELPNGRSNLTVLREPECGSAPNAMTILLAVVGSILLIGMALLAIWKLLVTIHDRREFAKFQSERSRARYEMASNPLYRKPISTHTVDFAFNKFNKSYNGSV

Consider `COc1ccc(C(CC(=O)O)N2CCN(CCCc3ccc4c(n3)NCCC4)C2=O)cn1` (stereo not shown) [MK-0429], for which the IC50 at human αvβ8 (Fig. 3D, assay optimisation, read-out: IC50 human αvβ8 AlphaLISA) stood at 58.3 nM; at human αvβ8 (Fig. 4B, read-out: IC50 Human integrin AlphaLISA assays: hαvβ8), 3.1 nM. In addition, the “Effect on cell adhesion, mouse αvβ5” value on CHOK1-mαvβ5 cells is on record as “decreased”. Moreover, on CHOK1-mαvβ3 cells, the “Effect on cell adhesion, mouse αvβ3” value is “decreased”.
